Where two headings read alike, the source gives them in different places.

24 compounds from patent US5066652A, “Thiomethyl and sulfinylmethyl derivatives having gastric acid antisectetory activity and pharmaceutical compositions containing them” (Chiesi Farmaceutici S.p.A., priority 1988, dated 1991) can be followed below.

The subject of this assay is secretion of hydrochloric acid in the stomach (Shay ulcers). Nature of the assay: Antisecretory activity - Shay ulcers (pylorus-ligated rat). It is filed as in vivo. Conditions: for Emax / ED40: Rattus norvegicus; for Emax / ED50 / ED40: 2 h; for Emax: α=1 represents 100% inhibition of gastric acid hypersecretion, read-out: α (approximate value of intrinsic activity); for ED50: rat, pylorus ligation, intraduodenal or intravenous; for PR (potency ratio in comparison with Omeprazole): ratio of mean ED50 on the 3 parameters of test compound to mean ED50 of omeprazole; for ED40: footnote 1: ED40 value. As for the experimental part: Antisecretory activity--Shay ulcers The gastric secretory inhibitory activity of the compounds of general formula (I) was determined in case of hypersecretion induced in the rat by ligation of gastroduodenal junction according to the procedure described by Shay (Shay H. et al, Gasgroenterology 5, 43-61, 1945). […] Thereafter, they were fasted for 24 hours, with water ad libitum, which period was sufficient to assure a good gastric emptying, then laparectomized under light ether anesthesia, so as to allow to effect a pylorus ligation as closer as possible to the gastroduodenal junction. Two hours after the ligation, the animals were killed by means of an ether excess and stomaches were removed. Gastric contents were recovered, after filtration through a gauze, and placed in graduated test-tubes and centrifuged at 3000×g for 15 minutes. The following parameters were evaluated on the surnatant: volume (ml); pH; free acidity by conversion of pH into H^+ μEq by means of Moore table (Ann. New York Acad. Sci. 1967, 866-874); titrable acidity, by titration of an amount with 0.02N NaOH, using phenolphtalein as the indicator. […] The results were expressed as percent inhibition of hypersecretion induced by pylorus ligation in the control rats. The obtained results are reported in table 3 as: ED50 (μmol/kg) calculated on the basis of the equation of the linear tract of does-effect curves obtained with the test compounds on volume, free and titrable acidities; […]

[1] abbreviates: free acid output, read-out: ED50 free acid output.
[2] abbreviates: secretion volume, read-out: ED50 volume.
The mark [3] stands for this setting: titratable acid output, read-out: ED50 titratable acid output.

Broadly, the ED50 is the dose that gives a 50% effect, or the effect in half of the subjects. As to `CN(C)c1ccccc1CSc1nccn1-c1ccc(F)cc1` [XXX], the Emax came out at 100% and the “PR (potency ratio in comparison with Omeprazole)” value is 5,0. Besides, the ED50 under setting [1] amounted to 9.2 µmol/kg. The ED50 under setting [2] came out at 21.1 µmol/kg. Further, the ED50 under setting [3] was 11.2 µmol/kg.
In the same order, the values of `Cn1ccnc1[S+]([O-])Cc1nc2ccccc2[nH]1` (stereo not drawn) [XVII, 1-methyl-2-[2'-benzimidazolylmethylsulfinyl)imidazole] are 70 to 90%, 39,7, 84.4 µmol/kg, 134 µmol/kg and 109 µmol/kg.
On the same counts, the results for `Cn1ccnc1[S+]([O-])Cc1nc2cc(C(=O)c3ccccc3)ccc2[nH]1` (stereo not drawn) [XV, 1-methyl-2-[2'-(5'-benzoyl)benzimidazolylmethylsulfinyl]imidazole] are 50 to 60%, 0,5, 0.6 µmol/kg, 3 µmol/kg and 0.7 µmol/kg.
In the case of `CN(C)c1ccccc1CSc1nc2cscc2[nH]1` [LII, 2-[2'-(N,N-dimethylanilyl)methylthio)thieno-[3,4-d]-imidazole], the Emax fell in the range of 50 to 80% and the “PR (potency ratio in comparison with Omeprazole)” value was 19,6. For the same compound, the ED50 under setting [1] was 45 µmol/kg. In addition, under setting [2], the ED50 stood at 90 µmol/kg. Under setting [3], the ED50 came out at 28 µmol/kg.
As to `c1ccc(-n2ccnc2SCc2ccc3ccccc3n2)cc1` [XXXVI, 1-phenyl-2-[2'-(quinolyl)methylthio]imidazole], the Emax fell in the range of 60 to 70% and the “PR (potency ratio in comparison with Omeprazole)” value is 30,1. Under setting [1], the ED50 is 50 µmol/kg. Also, under setting [2], the ED50 turned out to be 120 µmol/kg. For the same compound, the ED50 under setting [3] is 80 µmol/kg.
As to `COc1ccnc(CSc2nccn2-c2ccccc2)c1C` [XXIII, 1-phenyl-2-[2'-(3'-methyl-4'-methoxypyridyl)methylthio]imidazole], the Emax stood at 70% and the “PR (potency ratio in comparison with Omeprazole)” value was 43,4. Also, the ED50 under setting [1] came out at 125 µmol/kg. The ED50 under setting [2] was 125 µmol/kg. Besides, the ED50 under setting [3] was determined as 110 µmol/kg.
With `COc1ccnc(C[S+]([O-])c2nccn2-c2cccc(F)c2)c1C` (stereo not drawn) [XXXVII, 1-(3'-fluorophenyl)-2-[2'-(3'-methyl-4'-methoxypyridyl)methylsulphinyl]imidazole], the Emax was 60 to 80% and the “PR (potency ratio in comparison with Omeprazole)” value is recorded as 28,1. The ED50 under setting [1] is 73 µmol/kg. Moreover, the ED50 under setting [2] stood at 80 µmol/kg. For the same compound, the ED50 under setting [3] was 80 µmol/kg.
As for `CN(C)c1ccccc1CSc1nc2cncnc2[nH]1` [XLV, 8-[2'-(N,N-dimethylanilyl)methylthio]purine], the Emax turned out to be 100% and the “PR (potency ratio in comparison with Omeprazole)” value is on record as 8,2. The ED50 under setting [1] stood at 17.8 µmol/kg. For the same compound, the ED50 under setting [2] came out at 31.2 µmol/kg. For the same compound, the ED50 under setting [3] is 19.3 µmol/kg.
In the same order, the values of `CN(C)c1ccccc1CSc1nccn1-c1ccccc1F` [XXXII, 1-(2'-fluorophenyl)-2-[2'-(N,N-dimethylanilyl)methylthio]imidazole] are 100%, 10,1, 25.5 µmol/kg, 34.2 µmol/kg and 23.9 µmol/kg.
As to `COc1ccccc1-n1ccnc1SCc1ccccc1N(C)C` [XXXIII, 1-(2'-methoxyphenyl)-2-[2'-(N,N-dimethylanilyl)methylthio]imidazole], the Emax fell in the range of 70 to 80% and the “PR (potency ratio in comparison with Omeprazole)” value is 0,75. Further, the ED50 under setting [1] was found to be 1.2 µmol/kg. Also, the ED50 under setting [2] turned out to be 3 µmol/kg. The ED50 under setting [3] stood at 2 µmol/kg.
In the same order, the values of `c1ccc2[nH]c(CSc3nc4cccnc4[nH]3)nc2c1` [XLVIII, 2-(2'-benzimidazolylmethylthio)imidazo-[4,5-b]-pyridine] are 50 to 60%, 110,9, 164 µmol/kg, 522 µmol/kg and 235 µmol/kg.
In the same order, the values of `c1ccc(N2CCOCC2)c(CSc2nc3cccnc3[nH]2)c1` [XLVII, 2-(2'-[1'-(4-morpholinyl)phenyl]methylthio)imidazo-[4,5-b]-pyridine] are 70 to 90%, 28,2, 42.3 µmol/kg, 130 µmol/kg and 61.9 µmol/kg.
In the same order, the values of `COc1ccnc(C[S+]([O-])c2nccn2C)c1` (stereo not drawn) [XVI, 1-methyl-2-[2'-(4'-methoxypyridyl)methylsulfinyl]imidazole] are 40 to 60%, 0,3, 0.3 µmol/kg, 2.3 µmol/kg and 0.3 µmol/kg.
In the case of `COc1ccc(C)nc1C[S+]([O-])c1ncnc2[nH]cnc12` (stereo not drawn) [XLVI, 6-[2'-(6'-methyl-3'-methoxypyridyl)methylsulfinyl]purine], the Emax is 100% and the “PR (potency ratio in comparison with Omeprazole)” value is recorded as 15,8. Moreover, the ED50 under setting [1] was 33.1 µmol/kg. Also, the ED50 under setting [2] was found to be 52 µmol/kg. In addition, under setting [3], the ED50 was determined as 45.8 µmol/kg.
For `CN(C)c1ccccc1CSc1nccn1-c1ccc(Cl)cc1` [XXXIV, 1-(4'-chlorophenyl)-2-[2'-(N,N-dimethylanilyl)methylthio]imidazole. 2HCl], the Emax is 100% and the “PR (potency ratio in comparison with Omeprazole)” value was 3,9. Besides, under setting [1], the ED50 was determined as 6.1 µmol/kg. The ED50 under setting [2] came to 24.6 µmol/kg. For the same compound, the ED50 under setting [3] was found to be 1.3 µmol/kg.
On the same counts, the results for `Cn1ccnc1SCc1nc2ccccc2[nH]1` [IX, 1-methyl-2-(2'-benzimidazolylmethylthio)imidazole.2HCl] are 40 to 60%, 17,2, 53.2 µmol/kg, 65 µmol/kg and 24.7 µmol/kg.
On the same counts, the results for `[O-][S+](Cc1nc2ccccc2[nH]1)c1nccn1-c1ccc(F)cc1` (stereo not drawn) [XXXIX, 1-(4'-fluorophenyl)-2-[2'-(benzimidazolyl)methylsulfinyl]-imidazole] are 80%, 72,8, 139 µmol/kg, 300 µmol/kg and 165 µmol/kg.
In the same order, the values of `Cn1ccnc1SCc1ccc2ccccc2n1` [XII, 1-methyl-2-(2'-quinolylmethylthio)imidazole.2HCl] are 100%, 14,0, 34.7 µmol/kg, 43.5 µmol/kg and 38.1 µmol/kg.
Regarding `CN(C)c1ccccc1CSc1nc2cnccc2[nH]1` [L, 2-[2'-(N,N-dimethylanilyl)methylthio]imidazo-[4,5-c]-pyridine], the Emax stood at 100% and the “PR (potency ratio in comparison with Omeprazole)” value is recorded as 3,8. The ED50 under setting [1] was 5.5 µmol/kg. Also, the ED50 under setting [2] was found to be 19.7 µmol/kg. The ED50 under setting [3] was found to be 6.9 µmol/kg.
On the same counts, the results for `Cn1ccnc1[S+]([O-])Cc1ccc2ccccc2n1` (stereo not drawn) [XVIII, 1-methyl-2-(2'-quinolylmethylsulfinyl)imidazole] are 100%, 14,0, 36.9 µmol/kg, 40.3 µmol/kg and 39.4 µmol/kg.
In the same order, the values of `CN(C)c1ccccc1CSc1nccn1-c1ccccc1Cl` [XXXI, 1-(2'-clorophenyl)-2-[2'-(N,N-dimethylanilyl)methylthio]imidazole] are 90%, 18,4, 30.1 µmol/kg, 67.2 µmol/kg and 55.1 µmol/kg.
In the same order, the values of `COc1c(C)cnc(C[S+]([O-])c2nccn2C)c1C` (stereo not drawn) [XIV, 1-methyl-2-[2'-(3' ,5 '-dimethyl-4'-methoxy)pyridylmethylsulfinyl]imidazole] are 60%, 7,6, 17.1 µmol/kg, 26.7 µmol/kg and 19.2 µmol/kg.
For the compound `COc1c(C)cnc(CSc2nccn2C)c1C` [VIII, 1-methyl-2-[2'-(3' ,5 '-dimethyl-4'-methoxypyridyl)methylthio]imidazole.2HCl], the Emax lay within 40 to 60% and the “PR (potency ratio in comparison with Omeprazole)” value was 0,02. Also, for the setting “free acid output, read-out: ED40 free acid output”, the ED40 was determined as 0.03 µmol/kg. For the same compound, the ED40 (secretion volume, read-out: ED40 volume) was 0.12 µmol/kg. Under “titratable acid output, read-out: ED40 titratable acid output”, the ED40 turned out to be 0.03 µmol/kg.
`CN(C)c1ccccc1CSc1nccn1-c1ccccc1C(F)(F)F` [XXXV, 1-(2'-trifluoromethylphenyl)-2-[2'-(N,N-dimethylanilyl)methylthio]imidazole. 2HCl]: the Emax was 100% and the “PR (potency ratio in comparison with Omeprazole)” value is 4,6. Further, the ED50 under setting [1] was 8.3 µmol/kg. Also, the ED50 under setting [2] came out at 24.9 µmol/kg. The ED50 under setting [3] turned out to be 5 µmol/kg.
